This assay concerns the target T1, CD73 (Calu-6 cells) (Homo sapiens, UniProt P21589).
T1 construct: endogenous in cells; host or cells: Calu-6 cells
T1 sequence (P21589 27-549): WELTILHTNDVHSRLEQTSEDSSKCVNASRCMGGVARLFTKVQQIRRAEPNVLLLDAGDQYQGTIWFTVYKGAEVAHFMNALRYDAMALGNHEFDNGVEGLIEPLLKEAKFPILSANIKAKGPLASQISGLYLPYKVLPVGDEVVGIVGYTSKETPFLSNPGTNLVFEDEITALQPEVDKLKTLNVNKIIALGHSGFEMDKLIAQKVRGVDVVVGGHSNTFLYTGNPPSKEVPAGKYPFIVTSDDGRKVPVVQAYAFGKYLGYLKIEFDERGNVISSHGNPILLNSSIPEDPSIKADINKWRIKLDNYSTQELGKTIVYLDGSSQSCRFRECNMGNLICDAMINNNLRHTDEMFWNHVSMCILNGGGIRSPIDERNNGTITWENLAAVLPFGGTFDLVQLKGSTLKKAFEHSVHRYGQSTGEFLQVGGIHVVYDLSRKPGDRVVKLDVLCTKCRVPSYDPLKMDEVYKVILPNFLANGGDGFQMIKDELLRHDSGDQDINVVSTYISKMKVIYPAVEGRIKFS
As to the kind of experiment: Enzymatic activity detection at the cellular level (Calu-6 cells, AMP substrate, Cell-titer Glo luminescence). The conditions noted are these: enzymatic IC50 at the Calu-6 cell level, 30 min pre-incubation, 120 min at 37° C. The class given is cell-based. As for the experimental part: The Calu-6 cells were digested and re-suspended using TM buffer (25 mM Tris, 5 mM MgCl2, pH 7.5). Calu-6 cell suspension was seeded into 96 well cell culture plate, and the number of cells per well was 2.5×10^4, adding volume of 100 μL/well. Compound solution with gradient concentration was prepared by TM buffer, and 50 μL DMSO solution with different concentration was added into each pore cell. […] Pre-incubated in a shaker at 37° C. for 30 min. Each well was added with 50 μL 800 μM AMP solution. The shaker at 37° C. for 120 min was continued to incubate, then the 96-well plates were centrifuged and 50 μL supernatant was transferred to the new 96-well plates. […] The luminescence value was read by the multi-function enzymatic reader and converted into the inhibition percentage: Inhibition percentage=(1−reading/Max)*100. The “maximum value” was DMSO control. IC50 values were obtained by curve fitting with GraphPad Prism software.
In the case of `C=Cc1nnc(-c2c[nH]c(=O)[nH]c2=O)cc1[C@H]1C[C@@H]1CC` [Compound 1, 5-(5-((1S,2S)-2-ethylcyclopropyl)-6-vinylpyridazin-3-yl)pyrimidine-2,4(1H,3H)-dione], the IC50 was determined as 21.6 nM.
`C=C(C)c1nnc(-c2c[nH]c(=O)[nH]c2=O)cc1[C@H]1C[C@@H]1CC` [Compound 2, 5-(5-((1S,2S)-2-ethylcyclopropyl)-6-(prop-1-en-2-yl)pyridazin-3-yl)pyrimidine-2,4(1H,3H)-dione] displayed an IC50 of 329 nM.
`CC[C@H]1C[C@@H]1c1cc(-c2c[nH]c(=O)[nH]c2=O)nnc1C1CC1` [Compound 3, 5-(6-cyclopropyl-5-((1S,2S)-2-ethylcyclopropyl)pyridazin-3-yl)pyrimidine-2,4(1H,3H)-dione]: the IC50 is 721 nM.
With `C=C1CC(c2cc(-c3c[nH]c(=O)[nH]c3=O)nnc2Cl)C1` [Compound 4, 5-(6-chloro-5-(3-methylenecyclobutyl)pyridazin-3-yl)pyrimidine-2,4(1H,3H)-dione], inhibition was half-maximal at 22.6 nM (IC50).
Compound `C=CC1CC1c1cc(-c2c[nH]c(=O)[nH]c2=O)nnc1C` (centres unmarked) [Compound 6, 5-(6-methyl-5-(2-vinylcyclopropyl)pyridazin-3-yl)pyrimidine-2,4(1H,3H)-dione] displayed an IC50 of 50.7 nM.
In turn, `C=C[C@H]1C[C@@H]1c1cc(-c2c[nH]c(=O)[nH]c2=O)nnc1C` [Compound 7, 5-(6-methyl-5-((1S,2R)-2-vinylcyclopropyl)pyridazin-3-yl)pyrimidine-2,4(1H,3H)-dione] registered an IC50 of 21 nM.
In turn, `C/C=C/[C@H]1C[C@@H]1c1cc(-c2c[nH]c(=O)[nH]c2=O)nnc1C` [Compound 8, 5-(6-methyl-5-((1S,2R)-2-((E)-prop-1-en-1-yl)cyclopropyl)pyridazin-3-yl)pyrimidine-2,4(1H,3H)-dione] had an IC50 of 92.7 nM.
Consider `Cc1nnc(-c2c[nH]c(=O)[nH]c2=O)cc1[C@H]1C[C@@H]1/C=C/C1CC1` [Compound 9, 5-(5-((1S,2R)-2-((E)-2-cyclopropylvinyl)cyclopropyl)-6-methylpyridazin-3-yl)pyrimidine-2,4(1H,3H)-dione], for which half-maximal inhibition (IC50) required 200 nM.
In turn, `Cc1nnc(-c2c[nH]c(=O)[nH]c2=O)cc1[C@H]1C[C@@H]1/C=C/C#N` [Compound 10, (E)-3-((1R,2S)-2-(6-(2,4-dioxo-1,2,3,4-tetrahydropyrimidin-5-yl)-3-methylpyridazin-4-yl)cyclopropyl)acrylonitrile] displayed an IC50 of 31 nM.
The result for `Cc1nnc(-c2c[nH]c(=O)[nH]c2=O)cc1[C@H]1C[C@@H]1C=C(F)F` [Compound 11, 5-(5-((1S,2S)-2-(2,2-difluorovinyl)cyclopropyl)-6-methylpyridazin-3-yl)pyrimidine-2,4(1H,3H)-dione] reads 46 nM; that for `Cc1nnc(-c2c[nH]c(=O)[nH]c2=O)cc1[C@H]1C[C@@H]1/C=C/c1ccccc1` [Compound 16, 5-(6-methyl-5-((1S,2R)-2-((E)-styryl)cyclopropyl)pyridazin-3-yl)pyrimidine-2,4(1H,3H)-dione], 2.3 nM; that for `N#Cc1ccc(/C=C/[C@H]2C[C@@H]2c2cc(-c3c[nH]c(=O)[nH]c3=O)nnc2Cl)cc1` [Compound 17, 4-((E)-2-((1R,2S)-2-(3-chloro-6-(2,4-dioxo-1,2,3,4-tetrahydropyrimidin-5-yl)pyridazin-4-yl)cyclopropyl)vinyl)benzonitrile], 2.3 nM.
With `O=c1[nH]cc(-c2cc([C@H]3C[C@@H]3C#Cc3ccccc3)c(Cl)nn2)c(=O)[nH]1` [Compound 18, 5-(6-chloro-5-((1S,2S)-2-(phenylethynyl)cyclopropyl)pyridazin-3-yl)pyrimidine-2,4(1H,3H)-dione], the midpoint of inhibition, the IC50, lay at 5.6 nM.
`N#Cc1cccc(C#C[C@H]2C[C@@H]2c2cc(-c3c[nH]c(=O)[nH]c3=O)nnc2Cl)c1` [Compound 19, 3-(((1S,2S)-2-(3-chloro-6-(2,4-dioxo-1,2,3,4-tetrahydropyrimidin-5-yl)pyridazin-4-yl)cvclopropyl)ethynyl)benzonitrile] displayed a half-inhibitory concentration (IC50) of 2.99 nM.

The values are drawn from patent US20230321100A1, “CD73 INHIBITOR AND APPLICATION THEREOF IN MEDICINE” (BETTA PHARMACEUTICALS CO., LTD, priority 2020, published 2023).
